According to article PMC7321065, “Discovery of New Schiff Bases Tethered Pyrazole Moiety: Design, Synthesis, Biological Evaluation, and Molecular Docking Study as Dual Targeting DHFR/DNA Gyrase Inhibitors with Immunomodulatory Activity” (Molecules, 2020):
Values after ≈ are worked out from the molar mass of the structure shown.

Columns and labels:
[1] = system: E. coli ATCC BAA-196; experiment: Inhibition zone against MDRB, agar plate diffusion; assay type: cell-based
[2] = system: S. aureus ATCC 33591; experiment: Inhibition zone against MDRB, agar plate diffusion; assay type: cell-based
[3] = system: Enterococcus faecalis; experiment: Inhibition zone, agar plate diffusion; assay type: cell-based; details: read-out: Inhibition zone (IZ)
Procedure: (§1) Antimicrobial activities of the newly formed Schiff bases (6a–d, 7a–d, 8a–d, and 9a–d) and reference drugs were evaluated against three Gram-positive, three Gram-negative, and two fungi strain at Al-Azhar University, Cairo, Egypt. The inhibition zones (IZ, in mm ± standard deviation) and the minimal inhibitory concentration (MIC) (μg/mL) were determined by the conventional paper disk diffusion method.
(§2) In Vitro Antimicrobial Activities
(§3) The antimicrobial activities inhibition zone (IZ, mm±standard deviation) of pyrazole Schiff bases ( 6a-d , 7a-d, 8a-d and 9a-d ) was measurement according to the agar plate diffusion method. Briefly, 100 µl of the […]
(§4) […] of each sample (at 0.5 mg/mL) was added to each well (10 mm diameter holes cut in the agar gel). The plates were incubated for 24 h at 37 °C (for bacteria and yeast) and for 72 h at 27 °C (for filamentous fungi), each test was repeated three times. After incubation, the microorganism's growth was observed. […]
(§5) drugs while Amphotericin B was used as standard antifungal drug. The resulting inhibition zone diameters were measured in millimeters and used as criterion for the antimicrobial activity. Solvent controls (DMSO) were included in every experiment as negative controls. DMSO was used for dissolving […]
(§6) the tested microorganisms. […]

[4] = system: Bacillus subtilis; experiment: Inhibition zone, agar plate diffusion; assay type: cell-based; details: read-out: Inhibition zone (IZ)
Procedure: as §1, §2, §3, §4, §5, §6

[5] = system: Pseudomonas aeruginosa; experiment: Inhibition zone, agar plate diffusion; assay type: cell-based; details: read-out: Inhibition zone (IZ)
Procedure: as §1, §2, §3, §4, §5, §6

[6] = system: Escherichia coli; experiment: Inhibition zone, agar plate diffusion; assay type: cell-based; details: read-out: Inhibition zone (IZ)
Procedure: as §1, §2, §3, §4, §5, §6

[7] = system: E. coli ATCC BAA-196; experiment: MIC/MBC against MDRB, paper disk diffusion; assay type: cell-based; details: Escherichia coli, ATCCBAA196
Source text: (§7) The inhibition zone (IZ, mm±standard deviation) of pyrazole Schiff bases ( 6b, 7b, 7c, 8a, 8d and 9b) was
(§8) measurement according to the agar plate diffusion method against a panel of multidrug-resistant bacteria
(MDRB). […]

[8] = system: S. aureus ATCC 33591; experiment: MIC/MBC against MDRB, paper disk diffusion; assay type: cell-based; details: Staphylococcus aureus, ATCC33591
Source text: as §7, §8
(MDRB). […]

[9] = system: P. aeruginosa ATCC BAA-2111; experiment: MIC/MBC against MDRB, paper disk diffusion; assay type: cell-based; details: Pseudomonas aeruginosa, ATCCBAA2111
Source text: as §7, §8
(MDRB). […]

[10] = system: S. aureus ATCC 43300 (MRSA); experiment: MIC/MBC against MDRB, paper disk diffusion; assay type: cell-based; details: Staphylococcus aureus
Source text: as §7, §8
(MDRB). […]

[11] = system: hepatocellular carcinoma cell line (HepG2); experiment: Antiproliferative activity, MTT assay; assay type: cell-based, human
Procedure: (§9) 3-[4, 5-Dimethyl-2-thiazolyl)-2, 5-diphenyl-2 H-tetrazolium bromide (MTT) protocol is based on the cleavage of the tetrazolium salt by mitochondrial dehydrogenases in viable cells. Cells were dispensed in a 96 well sterile microplate (5 x 10^4 cells/well), and incubated at 37 °C with series of different concentrations, in DMSO, of each tested compound or Doxorubicin ® (positive control) for 48 h in a serum free medium prior to the MTT assay. After incubation, media were carefully removed, 40 µL of MTT (2.5 mg/mL) were added to each well and then incubated for an additional 4 h. The purple formazan dye crystals were solubilized by the addition of 200 µL of DMSO. The absorbance was measured at 590 nm using a SpectraMax® Paradigm® Multi-Mode microplate reader. The relative cell viability was expressed as the mean percentage of viable cells compared to the untreated control cells.
(§10) All experiments were conducted in triplicate and repeated in three different days. All the values were represented as mean ± SD. IC 50s were determined by probit analysis using SPSS software program (SPSS

[12] = system: mammary gland breast cancer cell line (MCF-7); experiment: Antiproliferative activity, MTT assay; assay type: cell-based, human; details: Homo sapiens, MCF7, 48 h, read-out: IC50 MCF-7
Procedure: as §9, §10

[13] = system: Fusarium oxysporum; experiment: MIC/MFC, paper disk diffusion; assay type: cell-based; details: Fusarium oxysporum
Procedure: as §1
(§11) In Vitro Antimicrobial Activities […]
(§12) DMSO was used for dissolving […]
(§13) the tested microorganisms.
(§14) The minimum inhibitory concentration (MIC), the minimum bactericidal concentration (MBC, µg/ml) and […]
(§15) and 9b) were determined by the conventional technique termed paper disk diffusion, by applying paper […]
(§16) Bacteria were grown on nutrient agar medium, while fungi and yeast were grown on Sabouraud agar medium. The purified streptomycin was dissolved in […]
(§17) inoculated with test organism. Growth inhibition was examined after 24 hr. from incubation at 37 °C for bacteria and after 72 hr. incubation at 27 °C for fungi and yeast. Each test was repeated three times. MIC was expressed as the lowest concentration inhibiting test organism’s growth. […]

[14] = system: Candida albicans; experiment: MIC/MFC, paper disk diffusion; assay type: cell-based; details: Candida albicans
Procedure: as §1, §11, §12, §13, §14, §15, §16, §17

[15] = system: P. aeruginosa ATCC BAA-2111; experiment: Inhibition zone against MDRB, agar plate diffusion; assay type: cell-based
[16] = system: Staphylococcus aureus; experiment: MIC/MBC, paper disk diffusion; assay type: cell-based
Procedure: as §1, §11, §12, §13, §14, §15, §16, §17

[17] = system: Enterococcus faecalis; experiment: MIC/MBC, paper disk diffusion; assay type: cell-based
Procedure: as §1, §11, §12, §13, §14, §15, §16, §17

[18] = system: Bacillus subtilis; experiment: MIC/MBC, paper disk diffusion; assay type: cell-based
Procedure: as §1, §11, §12, §13, §14, §15, §16, §17

[19] = system: Salmonella typhi; experiment: MIC/MBC, paper disk diffusion; assay type: cell-based
Procedure: as §1, §11, §12, §13, §14, §15, §16, §17

[20] = system: Pseudomonas aeruginosa; experiment: MIC/MBC, paper disk diffusion; assay type: cell-based; details: Pseudomonas aeruginosa
Procedure: as §1, §11, §12, §13, §14, §15, §16, §17

[21] = system: Escherichia coli; experiment: MIC/MBC, paper disk diffusion; assay type: cell-based; details: Escherichia coli
Procedure: as §1, §11, §12, §13, §14, §15, §16, §17

[22] = system: Staphylococcus aureus; experiment: Inhibition zone, agar plate diffusion; assay type: cell-based; details: read-out: Inhibition zone (IZ)
Procedure: as §1, §2, §3, §4, §5, §6
(§18) Bacteria were grown on nutrient agar medium, while fungi and yeast were grown on Sabouraud agar medium. […]

[23] = system: Fusarium oxysporum; experiment: Inhibition zone, agar plate diffusion; assay type: cell-based; details: read-out: Inhibition zone (IZ)
Procedure: as §1, §2, §3, §4, §5, §6, §18

[24] = system: Salmonella typhi; experiment: Inhibition zone, agar plate diffusion; assay type: cell-based; details: Salmonella enterica, St, mm ± standard deviation, sample at 0.5 mg/mL, read-out: Inhibition zone (IZ)
Procedure: as §1, §2, §3, §4, §5, §6, §18

[25] = system: Candida albicans; experiment: Inhibition zone, agar plate diffusion; assay type: cell-based; details: read-out: Inhibition zone (IZ)
Procedure: as §1, §2, §3, §4, §5, §6, §18

[26] = system: S. aureus ATCC 43300 (MRSA); experiment: Inhibition zone against MDRB, agar plate diffusion; assay type: cell-based

Compound: COc1ccc(Nc2n[nH]c(N=Cc3c(C)nn(-c4ccccc4)c3Cl)c2C(=O)Nc2ccccc2)cc1 [7b, 5-((5-Chloro-3-methyl-1-phenyl-1H-pyrazol-4-yl)methyleneamino)-3-(p-methoxyphenylamino)-N-phenyl-1H-pyrazole-4-carboxamide]
- Mean Diameter of Inhibition Zone against MDRB [1]: 20 ± 0.44 mm
- Mean Diameter of Inhibition Zone against MDRB [2]: 15 ± 0.41 mm
- zone of inhibition at 500 µg/mL [3]: 25 ± 0.3 mm
- zone of inhibition at 500 µg/mL [4]: 28 ± 0.16 mm
- zone of inhibition at 500 µg/mL [5]: 24 ± 0.78 mm
- zone of inhibition at 500 µg/mL [6]: 21 ± 0.14 mm
- MBC [7]: 18.5 µg/mL (≈ 35.2 µM)
- MIC [7]: 9.25 µg/mL (≈ 17.6 µM)
- MBC [8]: 16 µg/mL (≈ 30.4 µM)
- MIC [8]: 8.88 µg/mL (≈ 16.9 µM)
- MBC [9]: 15.6 µg/mL (≈ 29.7 µM)
- MIC [9]: 7.81 µg/mL (≈ 14.8 µM)
- MBC [10]: 15.6 µg/mL (≈ 29.7 µM)
- MIC [10]: 7.81 µg/mL (≈ 14.8 µM)
- Fold against doxorubicin (IC50) ([11]; HepG-2): 0.54 fold
- IC50 ([11]; Homo sapiens, HepG2, 48 h, read-out: IC50 HepG-2): 7.18 ± 0.49 µM
- IC50 [12]: 4.81 ± 0.25 µM
- MFC [13]: 46.9 µg/mL (≈ 89.1 µM)
- MIC [13]: 31.2 µg/mL (≈ 59.4 µM)
- MFC [14]: 28.1 µg/mL (≈ 53.4 µM)
- MIC [14]: 15.6 µg/mL (≈ 29.7 µM)
- Mean Diameter of Inhibition Zone against MDRB [15]: 21 ± 0.33 mm
- Fold more potent than Tetracycline (MIC) ([16]; S. aureus): 32 fold
- MIC ([16]; Staphylococcus aureus): 1.95 µg/mL (≈ 3.71 µM)
- MBC ([16]; Staphylococcus aureus, S. aureus): 3.7 µg/mL (≈ 7.03 µM)
- MIC [17]: 3.9 µg/mL (≈ 7.41 µM)
- MBC ([17]; E. faecalis): 6.63 µg/mL (≈ 12.6 µM)
- Fold more potent than Tetracycline (MIC) ([18]; B. subtilis): 5 fold
- MIC ([18]; Bacillus subtilis): 5.57 µg/mL (≈ 10.6 µM)
- MBC ([18]; Bacillus subtilis, B. subtilis): 10.6 µg/mL (≈ 20.1 µM)
- Fold more potent than Tetracycline (MIC) [19]: 8 fold
- Fold more potent than the standard drug (MBC) ([19]; S. typhi): ~6.6 fold
- MIC ([19]; Salmonella enterica, S. typhi): 3.9 µg/mL (≈ 7.41 µM)
- MBC ([19]; Salmonella enterica, S. typhi, read-out: MBC): 6.63 µg/mL (≈ 12.6 µM)
- MIC [20]: 31.2 µg/mL (≈ 59.4 µM)
- MBC ([20]; P. aeruginosa): 59.4 µg/mL (≈ 113 µM)
- MIC [21]: 7.81 µg/mL (≈ 14.8 µM)
- MBC ([21]; E. coli): 12.5 µg/mL (≈ 23.7 µM)
- zone of inhibition at 500 µg/mL [22]: 23 ± 0.55 mm
- zone of inhibition at 500 µg/mL [23]: 17 ± 0.45 mm
- zone of inhibition at 500 µg/mL [24]: 22 ± 0.12 mm
- zone of inhibition at 500 µg/mL [25]: 21 ± 0.2 mm
- Mean Diameter of Inhibition Zone against MDRB [26]: 18 ± 0.11 mm
